The record followed here is US8933094B2, “Ethynyl compounds useful for treatment of CNS disorder” (Hoffmann-La Roche Inc., priority 2009, dated 2015).

As usually defined, the EC50 is the concentration giving half of the maximal effect.

The test deals with T1, human mGlu5a receptor (Homo sapiens, UniProt P41594).
T1 construct: expressed in transfected cells
Briefly: Intracellular Ca2+ mobilization assay (mGlu5 PAM). Particulars: for EC50: HEK-293 cells stably transfected with human mGlu5a, L-glutamate added at EC20 after 10-30 min pre-incubation with test compound, read-out: EC50 (nM) mGlu5PAM; for Emax: maximal response in % of the maximal stimulatory effect obtained with saturating concentrations of L-glutamate, read-out: Eff. (%). It counts as cell-based. The method, then:
A monoclonal HEK-293 cell line stably transfected with a cDNA encoding for the human mGlu5a receptor was generated; for the work with mGlu5 Positive Allosteric Modulators (PAMs), a cell line with low receptor expression levels and low constitutive receptor activity was selected to allow the differentiation of agonistic versus PAM activity. Cells were cultured according to standard protocols (Freshney, 2000) in Dulbecco's Modified Eagle Medium with high glucose supplemented with 1 mM glutamine, 10% (vol/vol) heat-inactivated bovine calf serum, Penicillin/Streptomycin, 50 μg/ml hygromycin and 15 μg/ml blasticidin (all cell culture reagents and antibiotics from Invitrogen, Basel, Switzerland).
About 24 hrs before an experiment, 5×10^4 cells/well were seeded in poly-D-lysine coated, black/clear-bottomed 96-well plates. The cells were loaded with 2.5 μM Fluo-4AM in loading buffer (1×HBSS, 20 mM HEPES) for 1 hr at 37° C. and washed five times with loading buffer. The cells were transferred into a Functional Drug Screening System 7000 (Hamamatsu, Paris, France), and 11 half logarithmic serial dilutions of test compound at 37° C. were added and the cells were incubated for 10-30 min. with on-line recording of fluorescence. Following this pre-incubation step, the agonist L-glutamate was added to the cells at a concentration corresponding to EC20 (typically around 80 μM) with on-line recording of fluorescence; in order to account for day-to-day variations in the responsiveness of cells, the EC20 of glutamate was determined immediately ahead of each experiment by recording of a full dose-response curve of glutamate.
Responses were measured as peak increase in fluorescence minus basal (i.e. fluorescence without addition of L-glutamate), normalized to the maximal stimulatory effect obtained with saturating concentrations of L-glutamate. Graphs were plotted with the % maximal stimulatory using XLfit, a curve fitting program that iteratively plots the data using Levenburg Marquardt algorithm. The single site competition analysis equation used was y=A+((B−A)/(1+((x/C)D))), where y is the % maximal stimulatory effect, A is the minimum y, B is the maximum y, C is the EC50, x is the log 10 of the concentration of the competing compound and D is the slope of the curve (the Hill Coefficient). From these curves the EC50 (concentration at which half maximal stimulation was achieved), the Hill coefficient as well as the maximal response in % of the maximal stimulatory effect obtained with saturating concentrations of L-glutamate were calculated.
A depression of the signal observed after addition of the EC20 concentration of L-glutamate was indicative of an inhibitory activity of the test compound.
For orientation: Calcium flux is commonly read through the fluorescence of an indicator in the cells.

T1 sequence (P41594 21-1180 isoform P41594-2 limits assumed): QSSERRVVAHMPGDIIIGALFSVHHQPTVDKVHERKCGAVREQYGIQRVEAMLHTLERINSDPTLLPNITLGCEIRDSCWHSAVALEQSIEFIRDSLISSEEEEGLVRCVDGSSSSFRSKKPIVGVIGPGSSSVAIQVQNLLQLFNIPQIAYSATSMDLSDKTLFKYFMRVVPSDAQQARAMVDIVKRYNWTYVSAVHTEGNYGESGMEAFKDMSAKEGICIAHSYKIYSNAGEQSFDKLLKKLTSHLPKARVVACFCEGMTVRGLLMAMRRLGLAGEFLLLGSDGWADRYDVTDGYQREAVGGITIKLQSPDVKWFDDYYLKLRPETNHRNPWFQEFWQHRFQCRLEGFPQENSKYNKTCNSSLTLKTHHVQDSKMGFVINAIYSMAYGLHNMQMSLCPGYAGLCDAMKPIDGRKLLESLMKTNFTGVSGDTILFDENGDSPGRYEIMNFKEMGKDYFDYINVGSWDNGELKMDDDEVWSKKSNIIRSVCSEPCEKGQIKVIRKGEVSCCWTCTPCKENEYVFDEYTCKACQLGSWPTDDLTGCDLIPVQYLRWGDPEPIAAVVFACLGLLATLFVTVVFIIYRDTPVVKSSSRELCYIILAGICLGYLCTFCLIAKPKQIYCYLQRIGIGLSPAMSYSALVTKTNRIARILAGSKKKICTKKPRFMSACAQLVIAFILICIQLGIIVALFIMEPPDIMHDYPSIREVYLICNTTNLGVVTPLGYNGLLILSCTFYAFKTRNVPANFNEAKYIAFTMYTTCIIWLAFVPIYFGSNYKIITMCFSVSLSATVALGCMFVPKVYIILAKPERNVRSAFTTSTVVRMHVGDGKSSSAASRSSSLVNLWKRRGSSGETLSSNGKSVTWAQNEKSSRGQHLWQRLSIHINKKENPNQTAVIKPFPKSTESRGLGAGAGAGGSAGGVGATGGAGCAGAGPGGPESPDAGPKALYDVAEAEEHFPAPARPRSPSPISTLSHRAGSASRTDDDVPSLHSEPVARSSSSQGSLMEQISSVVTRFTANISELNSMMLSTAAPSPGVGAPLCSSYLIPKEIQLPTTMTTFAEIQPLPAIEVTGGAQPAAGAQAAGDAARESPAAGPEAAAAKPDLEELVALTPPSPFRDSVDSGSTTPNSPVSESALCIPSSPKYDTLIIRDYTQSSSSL

As for `CC(C)(C)c1cc2ccc(C#Cc3ccccc3)cn2n1` [Example 41, 2-tert-Butyl-6-phenylethynyl-pyrazolo[1,5-a]pyridine], the EC50 is 32 nM and the Emax turned out to be 122%.

In the case of `CC(C)(C)c1cc2ncc(C#Cc3ccccc3F)cn2n1` [Example 10, 2-tert-Butyl-6-(2-fluoro-phenylethynyl)-pyrazolo[1,5-a]pyrimidine], the EC50 turned out to be 19 nM and the Emax amounted to 80%.

`CC(C)(C)c1nc2ncc(C#Cc3cc(F)ccc3F)cn2n1` [Example 43, 2-tert-Butyl-6-(2,5-difluoro-phenylethynyl)-[1,2,4]triazolo[1,5-a]pyrimidine]: the EC50 was 14 nM and the Emax is 37%.

Take `Fc1cccc(C#Cc2cnc3nc(N4CCOCC4)nn3c2)c1` [Example 49, 6-(3-Fluoro-phenylethynyl)-2-morpholin-4-yl-[1,2,4]triazolo[1,5-a]pyrimidine]: the EC50 amounted to 50 nM and the Emax amounted to 101%.

Consider `Cc1cc2ncc(C#Cc3ccncc3)cn2n1` [Example 6, 2-Methyl-6-pyridin-4-ylethynyl-pyrazolo[1,5-a]pyrimidine], for which the EC50 was found to be 498 nM and the Emax turned out to be 82%.

As to `C(#Cc1cnc2cc(C3CCOCC3)nn2c1)c1ccccc1` [Example 26, 6-Phenylethynyl-2-(tetrahydro-pyran-4-yl)-pyrazolo[1,5-a]pyrimidine], the EC50 came to 472 nM and the Emax worked out at 124%.

For `C(#Cc1cnc2ncnn2c1)c1ccccc1` [Example 32, 6-Phenylethynyl-[1,2,4]triazolo[1,5-a]pyrimidine], the EC50 is 210 nM and the Emax was found to be 100%.

Take `C(#Cc1ccc2ccnn2c1)c1ccccc1` [Example 33, 6-Phenylethynyl-pyrazolo[1,5-a]pyridine]: the concentration giving a half-maximal response (EC50) worked out at 136 nM and the Emax was 88%.

On to `C(#Cc1cnc2nc(N3CCCC3)nn2c1)c1ccccc1` [Example 51, 6-Phenylethynyl-2-pyrrolidin-1-yl-[1,2,4]triazolo[1,5-a]pyrimidine], for which the EC50 came out at 56 nM and the Emax was 141%.

As for `CC(C)(C)c1cc2ncc(C#Cc3ccc(N)cc3)cn2n1` [Example 27, 4-(2-tert-Butyl-pyrazolo[1,5-a]pyrimidin-6-ylethynyl)-phenylamine], the EC50 is 41 nM and the Emax was determined as 99%.

Regarding `CC(C)(C)c1nc2ncc(C#Cc3ccccc3)cn2n1` [Example 42, 2-tert-Butyl-6-phenylethynyl-[1,2,4]triazolo[1,5-a]pyrimidine], the EC50 turned out to be 9 nM and the Emax is 73%.

Turning to `C(#Cc1ccc2ncnn2c1)c1ccccc1` [Example 31, 6-Phenylethynyl-[1,2,4]triazolo[1,5-a]pyridine], the EC50 was 274 nM and the Emax worked out at 123%.

For the compound `CC(C)(C)c1cc2ncc(C#Cc3ccc(F)c(F)c3)cn2n1` [Example 25, 2-tert-Butyl-6-(3,4-difluoro-phenylethynyl)-pyrazolo[1,5-a]pyrimidine], the EC50 turned out to be 45 nM and the Emax amounted to 93%.

As for `Cc1cccc(C#Cc2cnc3nc(N4CCOCC4)nn3c2)c1` [Example 48, 2-Morpholin-4-yl-6-m-tolylethynyl-[1,2,4]triazolo[1,5-a]pyrimidine], the EC50 was 58 nM and the Emax came to 84%.

In the case of `CC(C)c1cc2ncc(C#Cc3ccccc3)cn2n1` [Example 38, 2-Isopropyl-6-phenylethynyl-pyrazolo[1,5-a]pyrimidine], the EC50 turned out to be 18 nM and the Emax was found to be 53%.

On to `CC(C)(C)c1cc2ncc(C#Cc3cccnc3)cn2n1` [Example 13, 2-tert-Butyl-6-pyridin-3-ylethynyl-pyrazolo[1,5-a]pyrimidine], for which the EC50 was found to be 33 nM and the Emax came to 88%.

Take `CC(C)(O)c1cc2ncc(C#Cc3ccccc3)cn2n1` [Example 28, 2-(6-Phenylethynyl-pyrazolo[1,5-a]pyrimidin-2-yl)-propan-2-ol]: the EC50 stood at 152 nM and the Emax is 59%.

`N#Cc1cnn2cc(C#Cc3ccccc3)cnc12` [Example 30, 6-Phenylethynyl-pyrazolo[1,5-a]pyrimidine-3-carbonitrile]: the EC50 worked out at 310 nM and the Emax was 63%.

As to `CC(C)(C)c1cc2ncc(C#Cc3ccccc3)cn2n1` [Example 9, 2-tert-Butyl-6-phenylethynyl-pyrazolo[1,5-a]pyrimidine], the EC50 worked out at 5 nM and the Emax worked out at 75%.

As for `CC(C)(C)c1nc2ncc(C#Cc3ccc(F)c(F)c3)cn2n1` [Example 45, 2-tert-Butyl-6-(3,4-difluoro-phenylethynyl)-[1,2,4]triazolo[1,5-a]pyrimidine], the EC50 amounted to 28 nM and the Emax was determined as 54%.

`CC(C)(C)c1cc2ncc(C#Cc3cccc(F)c3)cn2n1` [Example 11, 2-tert-Butyl-6-(3-fluoro-phenylethynyl)-pyrazolo[1,5-a]pyrimidine]: the EC50 was 5 nM and the Emax amounted to 86%.

For the compound `C(#Cc1ccc2cnnn2c1)c1ccccc1` [Example 34, 6-Phenylethynyl-[1,2,3]triazolo[1,5-a]pyridine], the EC50 turned out to be 50 nM and the Emax came out at 77%.

In the case of `Cc1cc2ncc(C#Cc3cccc(F)c3)cn2n1` [Example 4, 6-(3-Fluoro-phenylethynyl)-2-methyl-pyrazolo[1,5-a]pyrimidine], the EC50 turned out to be 42 nM and the Emax came to 77%.

As for `CC(C)(C)c1nc2ncc(C#Cc3cccc(F)c3)cn2n1` [Example 44, 2-tert-Butyl-6-(3-fluoro-phenylethynyl)-[1,2,4]triazolo[1,5-a]pyrimidine], the EC50 was 9 nM and the Emax was determined as 85%.

With `CC(C)(C)c1nc2ccc(C#Cc3ccccc3)cn2n1` [Example 39, 2-tert-Butyl-6-phenylethynyl-[1,2,4]triazolo[1,5-a]pyridine], the EC50 came to 30 nM and the Emax was determined as 54%.

As to `COc1cccc(C#Cc2cnc3cc(C(C)(C)C)nn3c2)c1` [Example 17, 2-tert-Butyl-6-(3-methoxy-phenylethynyl)-pyrazolo[1,5-a]pyrimidine], the EC50 amounted to 104 nM and the Emax was found to be 41%.

Turning to `CC(C)(CO)c1nc2ccc(C#Cc3ccccc3)cn2n1` [Example 40, 2-Methyl-2-(6-phenylethynyl-[1,2,4]triazolo[1,5-a]pyridin-2-yl)-propan-1-ol], the EC50 was 66 nM and the Emax amounted to 88%.

Consider `C(#Cc1cnc2ccnn2c1)c1ccccc1` [Example 1, 6-Phenylethynyl-pyrazolo[1,5-a]pyrimidine], for which the concentration for a half-maximal effect (EC50) was 70 nM and the Emax worked out at 116%.

With `Cc1ccc(C#Cc2cnc3cc(C(C)(C)C)nn3c2)cc1` [Example 19, 2-tert-Butyl-6-p-tolylethynyl-pyrazolo[1,5-a]pyrimidine], the EC50 is 100 nM and the Emax came out at 68%.

As to `Clc1cccc(C#Cc2cnc3nc(N4CCOCC4)nn3c2)c1` [Example 50, 6-(3-Chloro-phenylethynyl)-2-morpholin-4-yl-[1,2,4]triazolo[1,5-a]pyrimidine], the EC50 turned out to be 39 nM and the Emax came to 88%.

In the case of `CC(C)(C)c1cc2ncc(C#Cc3cncc(F)c3)cn2n1` [Example 29, 2-tert-Butyl-6-(5-fluoro-pyridin-3-ylethynyl)-pyrazolo[1,5-a]pyrimidine], the EC50 was determined as 161 nM and the Emax was determined as 61%.

On to `C(#Cc1cnc2cc(C3CCC3)nn2c1)c1ccccc1` [Example 18, 2-Cyclobutyl-6-phenylethynyl-pyrazolo[1,5-a]pyrimidine], for which the EC50 turned out to be 182 nM and the Emax is 102%.

For the compound `CC(C)(C)c1cc2ncc(C#Cc3cncc(Cl)c3)cn2n1` [Example 23, 2-tert-Butyl-6-(5-chloro-pyridin-3-ylethynyl)-pyrazolo[1,5-a]pyrimidine], the EC50 was 34 nM and the Emax was determined as 59%.

Regarding `CC(C)(C)c1cc2ncc(C#Cc3ccc(N)nc3)cn2n1` [Example 22, 5-(2-tert-Butyl-pyrazolo[1,5-a]pyrimidin-6-ylethynyl)-pyridin-2-ylamine], the EC50 came out at 255 nM and the Emax was 98%.

Turning to `Cc1cc2ncc(C#Cc3ccc(F)cc3)cn2n1` [Example 5, 6-(4-Fluoro-phenylethynyl)-2-methyl-pyrazolo[1,5-a]pyrimidine], the EC50 was found to be 78 nM and the Emax came out at 74%.
